Measurements taken from the RepoRT retention time repository (doi:10.1007/s11306-011-0298-z).

Assay: RP, Waters ACQUITY UPLC HSS T3, 100 × 2.1 mm, 1.8 µm, 30 °C, 0.3 mL/min, estimated dead time 0.73 min; A: water + 0.1% formic acid, pH 3; B: methanol + 0.1% formic acid, pH 3; gradient (min/%B) 0/0 6/0 56/100 60/100
Settings: stereoisomer not certain

Point of comparison: `NC(=O)CC[C@H](N)C(=O)O` [L-Glutamine], LC retention time 1.3 min. Against it:
- Oc1ccc(C=Cc2cc(O)cc3c2C(c2cc(O)cc(O)c2)C(c2ccc(O)cc2)O3)cc1 (centres undefined) — 26-fold higher, 33.5 min
- OCC1OC(Oc2ccccc2)C(O)C(O)C1O (centres undefined) — 13-fold higher, 16.4 min
- Nc1ncnc2c1ncn2C1OC(COP(=O)(O)O)C(O)C1O (centres undefined) — 3.1-fold higher, 4.08 min
- OCC(O)C(O)CO (racemic) — within 1.5-fold, 1.41 min
- CC(C)CCCC(C)C1CCC2C3CC4OC45CC(O)CCC5(C)C3CCC12C (racemic) — 44-fold higher, 57.7 min
- CC1=CCCC(C)(C)C12CCC(C)O2 (racemic) — 37-fold higher, 48.1 min
- O=C(C=Cc1ccc(O)c(O)c1)OC1CC(OC(=O)C=Cc2ccc(O)c(O)c2)(C(=O)O)CC(O)C1O (centres undefined) [1,3 - dicaffeoylquinic acid] — 19-fold higher, 24.9 min
- NCCCN [1,3 diaminopropane] — within 1.5-fold, 1 min
- NCCCCN [1,4-diaminobutane] — within 1.5-fold, 1.1 min
- O=C(O)Cc1c[nH]c2ccccc12 [1H-indol-3-ylacetic acid] — 20-fold higher, 26.6 min
- Nc1nc2c(ncn2C2CC(O)C(COP(=O)(O)O)O2)c(=O)[nH]1 (centres undefined) [2'-deoxyguanosine-5'-phosphate] — 6.1-fold higher, 7.99 min
- O=C(O)c1c(O)cccc1O [2,6-dihydroxybenzoic acid] — 13-fold higher, 16.9 min
- O=C(O)C(=O)C(O)C(O)C(O)CO [2-keto-D-gluconic acid] — within 1.5-fold, 1.4 min
- C=Cc1ccc(O)c(OC)c1 [2-methoxy-4-vinylphenol] — 24-fold higher, 31.3 min
- CCC(C)CN (centres undefined) [2-methylbutylamine] — 5-fold higher, 6.5 min
- CC(C)C(=O)OCCOc1ccccc1 [2-phenoxyethyl isobutyrate] — 31-fold higher, 40.2 min
- O=C1CCCN1 [2-pyrrolidinone] — 4.5-fold higher, 5.9 min
- O=Cc1ccc(O)c(O)c1 [3,4 dihydroxybenzaldehyde] — 12-fold higher, 16.2 min
- O=C(O)c1cc(O)cc(O)c1 [3,5-dihydroxybenzoic acid] — 11-fold higher, 14.3 min
- CCOc1cc(C=O)ccc1O [3-ethoxy-4-hydroxybenzaldehyde] — 21-fold higher, 27.2 min
- CC(O)(CC(=O)O)CC(=O)O [3-hydroxy-3-methyl glutaric acid] — 5.4-fold higher, 7.04 min
- O=Cc1cccc(O)c1 [3-hydroxybenzaldehyd] — 16-fold higher, 20.3 min
- Cc1c[nH]c2ccccc12 [3-methyl indole] — 26-fold higher, 34.1 min
- CC(=O)CCc1ccc(O)cc1 [4-(4-hydroxyphenyl)butan-2-one] — 19-fold higher, 24.6 min
- Nc1ccc(C(=O)O)cc1 [4-aminobenzoic acid] — 9.5-fold higher, 12.3 min
- CN(C)c1ccc(C=CC=O)cc1 [4-dimethylaminocinnamaldehyde] — 27-fold higher, 34.5 min
- O=C(O)c1ccc(O)cc1 [4-hydroxybenzoic acid] — 13-fold higher, 17.5 min
- O=c1cc(O)c2ccccc2o1 [4-hydroxycoumarin] — 19-fold higher, 24.2 min
- Cc1cc(=O)oc2cc(O)ccc12 [4-methylumbelliferone] — 21-fold higher, 27.8 min
- Oc1ccc(C=Cc2ccccc2)cc1 [4-stilbenol] — 32-fold higher, 41.8 min
- O=Cc1ccc(CO)o1 [5-hydroxymethyl-2-furaldehyde] — 9.2-fold higher, 11.9 min
- Cc1ccc(C=O)o1 [5-methyl furfural] — 16-fold higher, 20.3 min
- COc1ccc2oc(-c3ccccc3)cc(=O)c2c1 [6-methoxyflavone] — 33-fold higher, 42.9 min
- CCCCCC(O)C=CC=CCC=CCC=CCCCC(=O)O [15(S)hydroxy-(5Z,8Z,11Z,13E)-eicosatetraenoic acid] — 39-fold higher, 50.4 min
- CC(C)=C1CCC(C)CC1=O [(R)-(+)-pulegone] — 30-fold higher, 38.9 min
- COc1cc(C(C)=O)ccc1O [Acetovanillone] — 18-fold higher, 23.9 min
- O=C(O)CC(Nc1ncnc2c1ncn2C1OC(COP(=O)(O)O)C(O)C1O)C(=O)O (centres undefined) [Adenylosuccinic acid] — 9.8-fold higher, 12.7 min
- NC(=O)CCCCC1CCSS1 (stereo not drawn) [Alpha lipoamide] — 22-fold higher, 29 min
- CCCCCCCCCCCCCCCCCC(=O)OCCCC [Butyl stearate] — 46-fold higher, 59.5 min
- OCC1OC(OC2C(Oc3cc4c(O)cc(O)cc4[o+]c3-c3ccc(O)c(O)c3)OC(CO)C(O)C2O)C(O)C(O)C1O (centres undefined) [Cyanidin 3-sophoroside] — 16-fold higher, 21.4 min
- OCc1ccccc1OC1OC(CO)C(O)C(O)C1O (stereo not drawn) [D(-)-Salicin] — 12-fold higher, 16.1 min
- O=C(CO)C(O)C(O)C(O)CO (stereo not drawn) [D(-)fructose] — within 1.5-fold, 1.4 min
- C[C@@H](O)[C@H](O)[C@H](O)[C@@H](O)C=O [D-(+)-fucose] — within 1.5-fold, 1.8 min
- OCC1OC(OC2OC(CO)C(O)C(O)C2O)C(O)C(O)C1O [D-(+)-trehalose] — within 1.5-fold, 1.5 min
- O=C[C@H](O)[C@@H](O)[C@@H](O)[C@H](O)C(=O)O [D-(+)galacturonic acid] — within 1.5-fold, 1.33 min
- OCC1OC(O)C(O)C1O [D-(-)-Ribose] — within 1.5-fold, 1.4 min
- CC(C)(CO)C(O)C(=O)NCCC(=O)O [D-pantothenic acid] — 11-fold higher, 14.3 min
- CCCCCCCCCCCC=CC=CC=CC=CC=CC(=O)O [Docosapentaenoic acid] — 42-fold higher, 54 min
- Oc1ccc(C=Cc2cc(O)cc3c2C(c2cc(O)cc4c2C(c2cc(O)cc(O)c2)C(c2ccc(O)cc2)O4)C(c2ccc(O)cc2)O3)cc1 (stereo not drawn) [E-cis-miyabenol C] — 25-fold higher, 32.6 min
- Cc1cc2nc3c(=O)[nH]c(=O)nc-3n(CC(O)C(O)C(O)COP(=O)(O)OP(=O)(O)OCC3OC(n4cnc5c(N)ncnc54)C(O)C3O)c2cc1C (centres undefined) [FAD] — 16-fold higher, 20.7 min
- Cc1cc2nc3c(=O)[nH]c(=O)nc-3n(CC(O)C(O)C(O)COP(=O)(O)O)c2cc1C (centres undefined) [FMN] — 17-fold higher, 21.9 min
- CC(CCC(=O)O)C1CCC2C3C(O)C(O)C4CC(O)CCC4(C)C3CCC12C (centres undefined) [Hyocholic acid] — 35-fold higher, 45.6 min
- O=Cc1c[nH]c2ccccc12 [Indole-3-aldehyde] — 19-fold higher, 25.1 min
- O=C(O)C(O)Cc1c[nH]c2ccccc12 (centres undefined) [Indolelactic acid] — 19-fold higher, 24.6 min
- O=C(O)[C@H](O)[C@@H](O)C(=O)O [L-(+)-tartaric acid] — within 1.5-fold, 1.51 min
- CCCCCCCCC=CCCCCCCCC(=O)OC(COC(=O)CCCCCCCCCCCCCCC)COP(=O)([O-])OCC[N+](C)(C)C [L-a-Phosphatidylcholine] — 46-fold higher, 59.9 min
- NC(=O)C[C@H](N)C(=O)O [L-asparagine] — within 1.5-fold, 1.27 min
- N[C@@H](CC(=O)O)C(=O)O [L-aspartic acid] — within 1.5-fold, 1.28 min
- NC(=O)NCCC[C@H](N)C(=O)O [L-citrulline] — within 1.5-fold, 1.4 min
- N[C@@H](CCSC[C@H](N)C(=O)O)C(=O)O [L-cystathionine] — within 1.5-fold, 1.21 min
- N[C@@H](CS)C(=O)O [L-cysteine] — within 1.5-fold, 1.23 min
- N[C@@H](CCC(=O)O)C(=O)O [L-glutamic acid] — within 1.5-fold, 1.31 min
- NC(CCC(=O)NC(CS)C(=O)NCC(=O)O)C(=O)O [L-glutathione] — 2.6-fold higher, 3.4 min
- N[C@@H](Cc1cnc[nH]1)C(=O)O [L-histidine] — within 1.5-fold, 1.2 min
- N[C@@H](CCO)C(=O)O [L-homoserine] — within 1.5-fold, 1.29 min
- CC[C@H](C)[C@H](N)C(=O)O [L-isoleucine] — 3.6-fold higher, 4.62 min
- Nc1ccccc1C(=O)CC(N)C(=O)O [L-kynurenine] — 8.5-fold higher, 11 min
- CC(C)C[C@H](N)C(=O)O [L-leucine] — 3.8-fold higher, 4.98 min
- NCCCC[C@H](N)C(=O)O [L-lysine] — within 1.5-fold, 1.18 min
- O=C(O)C[C@H](O)C(=O)O [L-malic acid] — 1.5-fold higher, 2 min
- CSCC[C@H](N)C(=O)O [L-methionine] — 2.2-fold higher, 2.8 min
- CCC[C@H](N)C(=O)O [L-norvaline] — 1.8-fold higher, 2.3 min
- NCCC[C@H](N)C(=O)O [L-ornithine] — within 1.5-fold, 1.1 min
- N[C@@H](Cc1ccccc1)C(=O)O [L-phenylalanine] — 8.8-fold higher, 11.5 min
- O=C(O)[C@@H]1CCCN1 [L-proline] — within 1.5-fold, 1.59 min
- N[C@@H](CCCCN[C@@H](CCC(=O)O)C(=O)O)C(=O)O [L-saccharopine] — within 1.5-fold, 1.38 min
- N[C@@H](CO)C(=O)O [L-serine] — within 1.5-fold, 1.22 min
- C[C@@H](O)[C@H](N)C(=O)O [L-threonine] — the same, 1.3 min
- N[C@@H](Cc1c[nH]c2ccccc12)C(=O)O [L-tryptophan] — 12-fold higher, 16 min
- N[C@@H](Cc1ccc(O)cc1)C(=O)O [L-tyrosine] — 4.7-fold higher, 6.08 min
- CC(C)[C@H](N)C(=O)O [L-valine] — 1.7-fold higher, 2.19 min
- CCCCCCCCCCCCCCCCCCCCC(=O)OC [Methyl henicosanoate] — 46-fold higher, 60.4 min
- CC1OC(Oc2c(-c3cc(O)c(O)c(O)c3)oc3cc(O)cc(O)c3c2=O)C(O)C(O)C1O (centres undefined) [Myricitrin (myricetin 3-O-rhamnoside)] — 22-fold higher, 28.3 min
- CC(=O)NC1C(O)CC(O)(C(=O)O)OC1C(O)C(O)CO (centres undefined) [N-Acetyl-neuraminic acid] — within 1.5-fold, 1.5 min
- CC(=O)NC(Cc1ccc(O)cc1)C(=O)O (centres undefined) [N-acetyl tyrosine] — 13-fold higher, 17.4 min
- CC(=O)NC1C(O)OC(CO)C(O)C1O (centres undefined) [N-acetyl-galactosamine] — within 1.5-fold, 1.49 min
- O=C1CCC(=O)N1O [N-hydroxysuccinimide] — 1.5-fold higher, 2 min
- N[C@@H](COP(=O)(O)O)C(=O)O [O-phospho-L-serine] — within 1.5-fold, 1.21 min
- Oc1ccc(C2Oc3cc(O)cc4c3C2c2cc(O)cc3c2C(c2cc(O)cc5c2C4C(c2ccc(O)cc2)O5)C(c2ccc(O)cc2)O3)cc1 (centres undefined) [a-viniferin] — 25-fold higher, 33 min
- CC(C=CC1(O)C(C)=CC(=O)CC1(C)C)=CC(=O)O (centres undefined) [abscisic acid] — 24-fold higher, 31.3 min
- CC(=O)NC(CS)C(=O)O (centres undefined) [acetylcysteine] — 6.2-fold higher, 8 min
- Nc1ncnc2nc[nH]c12 [adenine*] — 1.8-fold higher, 2.33 min
- Nc1ncnc2c1ncn2C1OC(CO)C(O)C1OP(=O)(O)O (centres undefined) [adenosine 2'-monophosphate] — 8.4-fold higher, 10.9 min
